The results in this text go back to patent US20040092438A1, “Gd3-synthesis inhibitors for treating neuropathological disorders” (priority 1999, published 2004).

Data set [1] has as its system GD3 levels in the ischemic hemisphere. In words: GD3 levels in brain after MCA occlusion (thin-layer chromatography). The data set is classed as in vivo, mice (C57BL6 strain). Conditions: single i.p. 100 mg/kg with piperonyl butoxide 400 mg/kg, 15 min after MCA occlusion; 90-minute occlusion, 24-hour reperfusion.
Method: (§4) This was done by pushing a siliconized nylon suture through the common carotid artery as far as the MCA and stopping the blood flow through the MCA. After 90 min, the thread was withdrawn and thus the blood circulation was restored. The animals were under deep anesthesia (ketamine and Rompun; each 150 mg/kg of bodyweight) and the rectal temperature was maintained at about 37° C. with heat lamps and a heated cushion throughout the operation. After an observation period of 24 hours, the animals were again anesthetized, and the brains were dissected after perfusion.
Thus, tissues and cells were disrupted by two freeze-thaw cycles. The polar lipids were extracted, and the gangliosides were chromatographed on silica gel plates 60 for high performance thin-layer chromatography (HPTLC) (Merck, Darmstadt, Germany), dried and visualized with resorcinol. […] For the immunostaining, the plates were coated with 0.5% poly(isobutyl methacrylate) in hexane, dried, incubated with the monoclonal antibody R24 (IgG3) directed against GD3 for 1 h, and read via the immunoperoxidase stain. The bands were then scanned and analyzed by densitometry using the AIDA-1000/1B image analyzer (Raytest Isotopenmessgerate, Straubenhardt, Germany).
Another data set relates to focal cerebral ischemia. The following applies: single i.p. 100 mg/kg with piperonyl butoxide; p <0.007.
Data set [2] relates to primary neurons. As to the kind of experiment: Neuronal death after addition of gangliosides to cortical neuron cultures. The data set is classed as cell-based, mouse. The following applies: 24 h after addition of 500 μM (highest dose) to cortical neuronal cells. On the procedure: (§1) Neurons were obtained from transgenic mice whose acid sphingomyelinase had been inactivated (ASM^−/−; Hirunouchi, K., et al., Nature Genetics 10, 288-294 (1995)) and wild-type mice of the same generation (ASM^+/+). Primary neuron cultures were prepared from 15- to 17-day mouse fetuses as previously described by Dawson, T. M., et al, Ann. neurol. 30, 843-6 (1991). […] The cells were applied to polyornithine-coated 24-well plates (Sigma, Deisenhofen, Germany). After 4 days, the cells were treated with cytosine arabinoside (5 μM) for a further four days in order to inhibit the proliferation of non-neural cells. The cell cultures were then kept at 8% CO2 and 37° C. in MEM, 10% horse serum, 25 mM glucose and 2 mM L-glutamine in a humidity incubator. The neurons were allowed to mature in culture for at least 8 days before being used for the experiment. The proportion of glial cells in the culture was determined using an antibody directed against glial fibrillary acidic protein (GFAP) to be less than 10%.
(§2) The percentage of dead cells was determined by trypan blue exclusion and expressed as percentage of the specific death. This was calculated as follows:
(§3) % specific death=(detected death−spontaneous death)/(100−spontaneous death)×100
Cortical neuronal cells were treated with increasing doses of GD3. […]

Data set [3] concerns primary neurons. In words: Oxygen/glucose deficiency in vitro, specific death of primary neurons. Conditions: 80 nM added 48 h before 6-hour oxygen/glucose deficiency, then reperfusion; relative to ST8-Sc-treated neurons. The data set is classed as cell-based, mouse. On the procedure:
as §1, with “10%. […]” for “10%.”
as §2, §3

The next data set concerns GD3 synthase. In words: GD3 levels in neurons after oxygen/glucose deficiency and reperfusion (thin-layer chromatography). It counts as cell-based, mouse. Conditions: 80 nM added 48 h before 6-hour oxygen/glucose deficiency, 24-hour reperfusion; relative to ST8-Sc-treated neurons. On the procedure: The procedure for generating a combined oxygen/glucose deficiency was known per se (Kaku, D. A., et al., Brain Res. 554:344-7; Monyer, H. et al., Neuron 8, 967-73 (1992); with slight modifications). The culture medium was replaced by MEM, 1% horse serum and 2 mM L-glutamine. The cultures were kept in an anaerobic chamber which contained a gas mixture comprising […], 85% N2 and 5% CO2, at 37° C. and 100% humidity for 6 h. The oxygen/glucose deficiency was abolished by removing the cultures from the chamber and adding horse serum and glucose to a final concentration of 10% and 25 mM respectively. The cultures were then replaced in a humidity incubator containing 8% CO2 and atmospheric oxygen for a further 3 h, 18 h or 24 h. […]
GD3 was determined as previously described by De Maria, R., et al., Science 277, 1652-5 (1997). […] For the immunostaining, the plates were coated with 0.5% poly(isobutyl methacrylate) in hexane, dried, incubated with the monoclonal antibody R24 (IgG3) directed against GD3 for 1 h, and read via the immunoperoxidase stain. The bands were then scanned and analyzed by densitometry using the AIDA-1000/1B image analyzer (Raytest Isotopenmessgerate, Straubenhardt, Germany).

Method for focal cerebral ischemia: as §4
The stained sections were scanned directly (MCID-M4,3.0; Imaging Res. Inc.). […] The significance was determined by the Mann-Whitney test. […] Averaging took place with the Scion-Image b 3.b.

Take `CCCCCCCCCC(=O)N[C@H](CN1CCOCC1)[C@H](O)c1ccccc1` [D-PDMP, D-threo-1-phenyl-2-decanoylamino-3-morpholino-1-propanol]: in data set [1], the “increase in GD3 on the ischemic side compared with the non-ischemic side” value amounted to 10%. Moreover, in the data set on focal cerebral ischemia, the “reduction in the lesion caused by stroke compared with untreated ischemic animals” value is on record as 90%. With II^3(NeuAc-α-2,8-NeuAc)LacCer [GD3], the specific neuronal death entry in the data set on primary neurons [2] is listed as “up to 80%”. In the case of “GD3 synthase antisense oligodeoxynucleotides: antisense oligodeoxynucleotides against GD3 synthase (SEQ ID NO:2) (antisense CAGTACAGCCATGGCCCCTCT; DNA, backbone and methylation of C not given here)”, in the data set on primary neurons [3], the “mortality, % of the level in cultures treated with randomly arranged sequence” value worked out at 50%. Moreover, the “accumulation of GD3, % of controls” value in the data set with GD3 synthase stood at 55%.
